# “And” between values parts separate entries of the source, which are not always exact repeats. Identical values can stand only once.
# What was measured:
# [1] = target: human esRAGE (Homo sapiens, UniProt Q15109); assay: Surface plasmon resonance (BIAcore) of oxytocin binding to immobilised esRAGE; settings: SPR BIAcore 2000, immobilised recombinant human esRAGE (~5000 RU), 10 mM HEPES pH 7.4, 0.15 M NaCl, 25 °C; read-out: apparent dissociation constant (KD)
# Method: Isolated human esRAGE was immobilised to BIAcore CM5 research grade sensor chips with the amine coupling kit to a density of ~5000 response units (RU)[27],[32],[41]. […] The sensor chips were regenerated with 10 mM NaOH and 0.5% SDS (W/V).
# [2] = cited from earlier work
# [3] = Oxytocin in CSF after transient brain ischaemia (BCCAO) or sham operation; assay type: in vivo, mouse; settings: individual animals, listed as OT
# Chain of human esRAGE (Q15109 23-347 isoform Q15109-3 limits assumed): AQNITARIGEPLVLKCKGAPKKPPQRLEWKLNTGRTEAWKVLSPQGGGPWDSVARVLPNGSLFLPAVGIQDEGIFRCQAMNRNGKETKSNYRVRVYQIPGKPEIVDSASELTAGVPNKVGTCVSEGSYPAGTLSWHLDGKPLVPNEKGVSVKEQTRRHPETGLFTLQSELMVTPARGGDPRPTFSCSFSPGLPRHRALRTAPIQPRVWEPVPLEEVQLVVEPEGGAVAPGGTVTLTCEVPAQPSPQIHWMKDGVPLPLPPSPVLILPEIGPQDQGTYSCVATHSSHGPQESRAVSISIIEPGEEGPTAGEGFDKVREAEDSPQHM
compound,measurement,setting,value
"CC[C@H](C)[C@@H]1NC(=O)[C@H](Cc2ccc(O)cc2)NC(=O)[C@@H](N)CSSC[C@@H](C(=O)N2CCC[C@H]2C(=O)N[C@@H](CC(C)C)C(=O)NCC(N)=O)NC(=O)[C@H](CC(N)=O)NC(=O)[C@H](CCC(N)=O)NC1=O [oxytocin, Oxytocin]",Kd,[1],179 nM
same,share of peripherally applied oxytocin that reaches the CNS,"[2]; 5 μg, 10 min after subcutaneous or intraperitoneal administration, rats",approximately 0.002%
same,bioavailability,[2]; LC/MS after administration of 500 μg oxytocin in rats,approximately 2%
same,share of oxytocin peptide accumulated on the BBB,"[2]; intracarotid artery bolus of 125I- or 3H-labelled oxytocin, rats",1–2%
same,CSF OT,[3]; Ager-/- BCCAO male mice,121.746% and 129.498% and 127.909% and 71.8544% and 61.8033% and 79.0857% and 110.296% and 99.9236% and 126.34%
same,CSF OT,[3]; Ager-/- Sham male mice,71.8544% and 61.8033% and 67.0976% and 118.777% and 117.319% and 98.6976%
same,CSF OT,[3]; WT BCCAO male mice,191.756% and 287.616% and 179.547% and 244.561% and 258.145%
same,CSF OT,"[3]; WT Sham male mice, cisterna magna, after exogenous oxytocin",155.233% and 188.051% and 122.984% and 133.451%

# From publication PMC6389896 (Communications Biology, 2019)
